From PMC7153278, “Discovery of Membrane-Bound Pyrophosphatase Inhibitors Derived from an Isoxazole Fragment” (ACS Medicinal Chemistry Letters, 2020)

Assay: Colloidal aggregation under TmPPase assay conditions (nephelometry)
Format: physicochemical
Protocol: Aggregation data for 5, 12k and 12l (Figure S1)
Potential colloidal aggregation in the TmPPase model system was studied at five concentrations (50 µM, 25 µM, 10 µM, 5 µM, and 1 µM). The original assay conditions were simulated, and the light scattering of potential aggregates in the mixture was studied by nephelometric methods using Nepheloskan Ascent® (Labsystems, Finland). Aggregation of the blank and compounds 5, 12k and 12l were measured as triplicates from one independent experiment at three different voltages (300 V, 400 V and 500 V) at room temperature.
5 µM and 1 µM concentrations the obtained values were close to those observed by the blank, thereby […]
Figure S1. Aggregation data for compounds 5, 12k and 12l. The data, measured in relative nephelometric units (RNU), is shown as the mean ± SD and normalized to the blank.
(1 picture or pasted object on this page, not shown here)
Experimental procedures and characterization data
Commercial analogues were retrieved by screening the ZINC12 database1 (clean drug-like subset; downloaded on 27.04.2016) using a KNIME2 workflow connected to the RDKit3 nodes. The SAR analyses and docking studies (data not shown) underlying this work were conducted using the Schrödinger molecular modeling platform (Canvas and Glide modules, respectively)4 .
Compounds 1–7, 13–20 and 24 were obtained from commercial suppliers. Supporting Information, Table S1 summarizes the compounds tested. Compound purity was >95% as determined by LC-MS and characterized by HRMS. For all commercial compounds after the initial screen, purity was tested independently from the vendor specification (a few compounds of lower purity are reported only in Supporting Information). To evaluate potential aggregation of samples in the TmPPase based assay, aggregate formation in the assay conditions was studied at five concentrations (50 μM, 25 μM, 10 μM, 5 μM, and 1 μM) for compounds 5, 12k and 12l (Figure S1).
All chemicals used were commercially available. Reactions using anhydrous conditions were conducted in oven-dried (130 °C, >24 h) glassware, purged with argon prior to use. Microwave reactions were performed using a Biotage Initiator+ instrument (Uppsala, Sweden). The progress of the reactions was monitored by thin-layer chromatography on silica gel 60-F254 aluminum plates and visualized by using a dual short/long wave (254/366 nm) UV lamp. The combined organic solutions from extractions were dried over anhydrous Na2SO4, filtered and concentrated with a rotary evaporator at reduced pressure. Flash SiO2 column chromatography was performed with automated high performance flash chromatography, Biotage Isolera™ Spektra Systems with ACI™ and Assist (ISO-1SW Isolera One) equipped with a variable UV-VIS (200–800 nm) photodiode array (Uppsala, Sweden) using SNAP KP-SIL/Ultra 10 g or 25 g cartridges and the indicated mobile phase gradient.
The reactions were not optimized and all the yields are given for purified products.
Characterization of the synthesized products were done by NMR and MS analysis. 1H and 13C NMR spectra were acquired at 298 K on a Bruker Ascend 400 MHz – Avance III HD NMR spectrometer (Bruker Corporation, Billerica, MA, USA). Chemical shifts (δ) are reported in parts per million (ppm) relative to the residual solvent signals: CDCl3 7.26 and 77.16 ppm, CD3OD 3.31 and 49.00 ppm, DMSO-d6 2.50 and 39.52 ppm for 1H and 13C NMR, respectively. […] High resolution mass (HRMS-ESI) data was reported for the calculated and experimentally […]

CC(C)(C)c1cc(-c2cc(C(=O)Oc3ccccc3Br)no2)cc(C(C)(C)C)c1 [Compound 12l]
aggregation (light scattering) (at 10 µM, 5 µM and 1 µM): only minor/no detectable aggregation | aggregation (light scattering) (at 50 µM and 25 µM): showed aggregate formation
